Measurements: US20080293679A1, “Use of carotenoids and/or carotenoid derivatives/analogs for reduction/inhibition of certain negative effects of COX inhibitors” (priority 2005, published 2008)
Marks after values point to notes of the source that are not given here.

Legend:
[1] = Lipid peroxide levels in DLPC multilamellar vesicles, C/P 0.2 (triiodide assay); assay type: biochemical; details: for Lipid Peroxide Levels: mean ± S.D.
Method: The levels of lipid peroxide formation were measured photometrically at specific time points. […] Samples were prepared in a glass test tube as described in the table above. […] Sample tubes were vortexed for 3 min to form MLVs. This assay is based on the principle of the oxidative capacity of lipid peroxides to convert […], which can be measured photometrically at […] (El-Saadani et al., 1989). […] Samples were placed in a water bath set at 37° C. Samples remained in the water bath throughout the experiment except for the temporary removal for time point extractions. • 2. […] • 3. After combining sample time point aliquots with CHOD active reagent and the diffraction buffer as described in the table above, test samples were incubated about 6 hours in darkness at ambient temperature. • 4. The absorbance ([…] nm) of the samples was measured using a spectrophotometer. • 5. […] This value was determined by adding known concentrations of I2 to the CHOD reagent. A stoichiometric relationship (slope=1.02) was observed between the amount of organic peroxides assayed and the concentration of I3^- produced.

human LDL = test: MDA formation (TBARS) in isolated human LDL; assay type: biochemical; details: for MDA level in LDL samples: 1 μM, vehicle 3.23±0.28 μM
Method: The effects of the compounds on lipid peroxidation were tested in isolated human LDL. Human venous blood was collected into vacutainer tubes containing K3EDTA after a 12-hour fast. Plasma was immediately separated by centrifugation at 3000 g for 25 minutes. LDL was obtained from plasma by ultracentrifugation using a procedure similar to that reported by Chung et al, 1986 using discontinuous KBr gradient. The purity of the freshly isolated LDL was assessed by SDS-PAGE using the procedure of Laemmli, 1970.
The extent of oxidation was measured for the LDL in the absence and presence of the drugs over a range of concentrations. Malondialdehyde (MDA), a product of lipid oxidation, was measured by the reaction of this aldehyde with thiobarbituric acid in an acid medium to form a stable chromogen, referred to as thiobarbituric-acid-reactive-substances (TBARS). Purified LDL (100 μg protein/ml) was incubated for 30 minutes with either vehicle or an NSAID at various concentrations followed by addition of 50 μM CuSO4 at 37° C. Conjugated diene formation was measured by continuously monitoring the change in absorbance at 234 nm on a Beckman DU 640 spectrophotometer, as described by Esterbauer et al., 1985. Stock solutions were tested for iron contamination, which can contribute independently to lipid peroxidation and assay artifacts.

[2] = Peroxidation study in DLPC multilamellar vesicles, C/P 0.6; assay type: biochemical; details: C/P 0.6, carotenoid 10 μM, 48 hour
Method: 1. Samples were prepared in a glass test tube as described in the table above. This gives a cholesterol/DLPC mole ratio of 0.6 and a final concentration of 10 μM for the carotenoids. Equal volumes of vehicle (20 μl chloroform) were added to control samples. 2. All samples were dried down under a steady stream of nitrogen gas while vortexing. 3. Samples were placed in a vacuum desiccator for 2 hours to remove residual solvent and protected from light. 4. Multi-lamellar vesicles (MLVs) were prepared by the method developed by Bangham and Standish (1965). After samples were removed from the vacuum desiccator, they were immediately resuspended in 1 ml of diffraction buffer warmed to room temperature and vortexed for 3 minutes to form MLVs.
This assay is based on the principle of the oxidative capacity of lipid peroxides to convert I2 to I3^− (triiodide), which can be measured photometrically at 365 nm (el-Saadani et al., 1989). This assay is sensitive to peroxide concentrations as low as 10 μM.
1. Samples were placed in a water bath set at 37° C. throughout the experiment. 2. Aliquots of a sample (20 μl) were extracted at a 48 hour time point as described in the table below.
3. After combining the samples with CHOD active reagent and the diffraction buffer, test samples were incubated for about 6 hours in darkness at ambient temperature. 4. The absorbance of a sample was measured photometrically at 365 nm.
Concentrations of lipid peroxides were calculated by the use of the molar absorptivity of I3^− measured at 365 nm (ε=2.46±0.25×10^4M^−1 cm^−1). This value was determined by adding known concentrations of […] to the CHOD reagent. A stoichiometric relationship (slope=1.02) was observed between the amount of organic peroxides assayed and the concentration of I3^− produced.

[3] = system: superoxide anion generation from phorbol-ester (PMA)-stimulated PMNs; test: Direct superoxide anion scavenging by EPR spectroscopy (DEPMPO spin trap), isolated human neutrophil assay; assay type: cell-based
Method: Leukocyte Isolation and Preparation. Human polymorphonuclear leukocytes (PMNs) were isolated from freshly sampled venous blood of a single volunteer by Percoll density gradient centrifugation as described previously. Briefly, each 10 mL of whole blood was mixed with 0.8 mL of 0.1 M EDTA and 25 mL of saline. The diluted blood was then layered over 9 mL of Percoll at a specific density of 1.080 g/mL. After centrifugation at 400×g for 20 min at 20° C., the plasma, mononuclear cell, and Percoll layers were removed. Erythrocytes were subsequently lysed by addition of 18 mL of ice-cold water for 30 s, followed by 2 mL of 10×PIPES buffer (25 mM PIPES, 110 mM NaCl, and 5 mM KCl, titrated to pH 7.4 with NaOH). Cells were then pelleted at 4° C., the supernatant was decanted, and the procedure was repeated. After the second hypotonic cell lysis, cells were washed twice with PAG buffer [PIPES buffer containing 0.003% human serum albumin (HSA) and 0.1% glucose]. Afterward, PMNs were counted by light microscopy on a hemocytometer. The isolation yielded PMNs with a purity of >95%. The final pellet was then suspended in PAG-CM buffer (PAG buffer with 1 mM CaCl2 and 1 mM MgCl2).
EPR Measurements. All EPR measurements were performed using a Bruker ER 300 EPR spectrometer operating at X-band with a TM110 cavity as previously described. The microwave frequency was measured with a Model 575 microwave counter (EIP Microwave, Inc., San Jose, Calif.). To measure superoxide anion ? generation from phorbol-ester (PMA)-stimulated PMNs, EPR spin-trapping studies were performed using the spin trap DEPMPO (Oxis, Portland, Oreg.) at 10 mM. 1×10^6 PMNs were stimulated with PMA (1 ng/mL) and loaded into capillary tubes for EPR measurements. To determine the radical scavenging ability of 3 and 9 in aqueous and ethanolic formulations, PMNs were pre-incubated for 5 minutes with test compound, followed by PMA stimulation.
Instrument settings used in the spin-trapping experiments were as follows: modulation amplitude, 0.32 G; time constant, 0.16 s; scan time, 60 s; modulation frequency, 100 kHz; microwave power, 20 milliwatts; and microwave frequency, 9.76 GHz. The samples were placed in a quartz EPR flat cell, and spectra were recorded. The component signals in the spectra were identified and quantified as reported previously.

[4] = Oxygen Radical Absorption Capacity (ORAC) of human plasma; assay type: biochemical; details: 10.0 μM (highest concentration tested); vehicle 28.1±1.2
Method: The comparative effect of COX-2 selective agents on the antioxidant capacity of human plasma was assessed using the Oxygen Radical Absorption Capacity (ORAC) assay. This assay was carried out according to the method of Huang et al., 2002 with fresh plasma using a microplate fluorescence reader in 96 well format with the excitation and emission filters set at 485 and 530 nm respectively.

[5] = F2-isoprostane formation from DAPC lipid vesicles by GC/NCI-MS; assay type: biochemical
Method: F2-Isoprostanes are derived principally from the formation of positioned peroxyl radical isomers of arachidonic acid, endocyclization to protaglandin G2-like structures, and reduction to PGF2-like compounds. Total levels of F2-isoprostanes, in DAPC lipid vesicles prepared in the presence of vehicle or drug, were measured by GC-MS with negative chemical ionization as described by Walter et al., 2000. Peroxidation of lipids occurred over time in the absence of any exogenous initiators at 37° C. F2-Isoprostane formation was also measured independently using mass spectroscopy in a blinded study at the Antioxidant Research Laboratory, Tufts University, Boston, Mass.

[6] = cited from earlier work
[7] = 24 Hour, carotenoid 1 μM, control 218 ± 20
[8] = 24 Hour, carotenoid 10 μM, control 218 ± 20
[9] = 48 Hour, carotenoid 1 μM, control 572 ± 76
[10] = 48 Hour, carotenoid 10 μM, control 572 ± 76

| Compound | % increase (+) or decrease (−) of lipid peroxide levels compared to control ([1]; 24 Hour, carotenoid 1 μM) | Lipid Peroxide Levels [1, 7] [µM] | % increase (+) or decrease (−) of lipid peroxide levels compared to control ([1]; 24 Hour, carotenoid 10 μM) | Lipid Peroxide Levels [1, 8] [µM] | % increase (+) or decrease (−) of lipid peroxide levels compared to control ([1]; 48 Hour, carotenoid 1 μM) | Lipid Peroxide Levels [1, 9] [µM] | % increase (+) or decrease (−) of lipid peroxide levels compared to control ([1]; 48 Hour, carotenoid 10 μM) | Lipid Peroxide Levels [1, 10] [µM] | also measured |
| --- | --- | --- | --- | --- | --- | --- | --- | --- | --- |
| CC1=C(/C=C/C(C)=C/C=C/C(C)=C/C=C/C=C(C)/C=C/C=C(C)/C=C/C2=C(C)C[C@@H](O)CC2(C)C)C(C)(C)C[C@H](O)C1 [Zeaxanthin] | +10.6%^a | 241 ± 12 | −0.5%^a | 217 ± 7 | +5.8%^a | 605 ± 26 | +20.6%^a | 690 ± 24 | – |
| CS(C)(=O)=O [dimethyl sulfone] | – | – | – | – | – | – | – | – | MDA level in LDL samples (human LDL): 3.32 ± 0.19 µM |
| CS(=O)(=O)c1ccccc1 [methyl phenyl sulfone] | – | – | – | – | – | – | – | – | MDA level in LDL samples (human LDL): 3.25 ± 0.13 µM |
| CC(C)=CCC/C(C)=C/C=C/C(C)=C/C=C/C(C)=C/C=C/C=C(C)/C=C/C=C(C)/C=C/C=C(\C)CCC=C(C)C [Lycopene] | +9.6%^a | 239 ± 2 | +85.8%^a | 405 ± 32 | +13.1%^a | 647 ± 61 | +119.1%^a | 1253 ± 55 | antioxidant/prooxidant activity [2]: highest prooxidant activity |
| CC1=C(/C=C/C(C)=C/C=C/C(C)=C/C=C/C=C(C)/C=C/C=C(C)/C=C/C2=C(C)CCCC2(C)C)C(C)(C)CCC1 [β-Carotene] | +24.8%^a | 272 ± 10 | +69.3%^a | 369 ± 17 | +40.4%^a | 803 ± 99 | +86.7%^a | 1068 ± 82 | antioxidant/prooxidant activity [2]: prooxidant activity |
| 3,3′-Diphosphoryloxy-β,ε-carotene sodium salt [Lutein Diphosphate Sodium Salt] | – | – | – | – | – | – | – | – | Mean (% inhibition) of superoxide anion signal ([3]; 40% EtOH, 0.1 mM): 18%; Mean (% inhibition) of superoxide anion signal ([3]; Water, 0.1 mM, listed as disodium diphosphate derivative of natural source lutein, sodium salt): 0%; Mean (% inhibition) of superoxide anion signal ([3]; Water, 0.1 mM, sodium salt): no inhibition; Mean (% inhibition) of superoxide anion signal ([3]; Water, 1.0 mM): 9.3%; Mean (% inhibition) of superoxide anion signal ([3]; Water, 3.0 mM): 72.3%; Mean (% inhibition) of superoxide anion signal ([3]; Water, 5.0 mM, listed as disodium diphosphate derivative of natural source lutein, sodium salt): more than 90%; Mean (% inhibition) of superoxide anion signal ([3]; Water, 5.0 mM, sodium salt): 91.0% |
| CC1=CC(O)CC(C)(C)C1/C=C/C(C)=C/C=C/C(C)=C/C=C/C=C(C)/C=C/C=C(C)/C=C/C1=C(C)CC(O)CC1(C)C (stereo not drawn) [Lutein, β,ε-carotene-3,3′-diol] | +15.6%^a | 252 ± 11 | +0.9%^a | 220 ± 8 | +13.5%^a | 649 ± 73 | +17.7%^a | 673 ± 69 | – |
| Cc1ccc(-c2cc(C(F)(F)F)nn2-c2ccc(S(N)(=O)=O)cc2)cc1 [celecoxib] | – | – | – | – | – | – | – | – | ORAC value (AUC) [4]: 28.5±0.1; effect on peroxidation of arachidonic acid-enriched vesicles ([5]; even at higher concentrations (data not shown)): no significant effect; maximum plasma concentration (Cmax) ([6]; approved 200 mg dose): 705 ng/mL; volume of distribution ([6]; in vivo): 400 L; Cmax ([6]; read-out: maximum plasma concentration (Cmax), approved 200 mg dose): 1850 nM |
| Cc1ccc(-c2ncc(Cl)cc2-c2ccc(S(C)(=O)=O)cc2)cn1 [etoricoxib] | – | – | – | – | – | – | – | – | Levels of isoprostanes ([5]; 100 nM, vehicle 140±25 ng/100 μl, mean ± S.D.): 224±22 ng/100 μl; effect on MDA levels (TBARS) in human LDL (human LDL): marked increases |
